Source: patent publication US20250160328A1, “COMPOSITIONS AND METHODS FOR REDUCING PARASITIC INFESTATION OF HONEY BEE HIVES” (University of Georgia Research Foundation, Inc., priority 2022, published 2025)
Where “and” joins values, the source holds several entries; their conditions need not be identical. Equal entries are not always repeated.

Assays:
small hive beetle adults = test: SHB Adult Exposure Toxicity Assay (contact); format: in vivo, Aethina tumida
Experimental: Testing on chlorantraniliprole contact effectiveness was also conducted on small hive beetle adults. Each plate in which small hive beetles were placed contained an approximately 1 in×1 in square of absorbent shop towel located in the middle of the pot, soaked with solution via pipette. Tests included a methanol-negative (1:1 sugar to water/w) control group with 6 plates of 8 individuals, a methanol-positive (1:1 sugar to water/w solution with methanol then added in to be 1/6 of volume) control group with 7 plates of 8 individuals, a 5 μg treatment group (same as methanol-positive control with 5 μg a.i. added) with 7 plates of 8 individuals, and a 10 μg group (same as methanol-positive control with 10 μg a.i. added) with 7 plates of 8 individuals. Numbers of live beetles were tallied at the end of the test period.

adult small hive beetles = test: SHB Adult Feed Toxicity and Reproduction Assay; format: in vivo, Aethina tumida
Experimental: In-feed testing with adult small hive beetles was done with small hive beetle adults taken from colonies in the field and individuals reared in-lab. Adults from the field and in-lab were given three days to acclimate together in a large container with feed (2 parts pollen supplement; 1 part pollen; 1/2 part honey) in an incubator at 30 C. Simultaneously, 50 mg of Chlorantraniliprole was suspended in 50 mL (1.25 g/mL) glycerol, which was then mixed into 100 g feed, resulting in a concentration of 0.3 mg Chlorantraniliprole per 1 gram feed. A concentration of 100 μg of active ingredient per 1 gram feed was then achieved via dilution with feed and glycerol solution. Using serial dilution, feeds with varying concentrations of active ingredient were mixed, producing feeds with 100 μg, 10 μg, 1 μg, 0 μg (control) active ingredient per 1 g feed. Following the acclimation period, approximately 10 adult small hive beetles (some pots contained more than 10 individuals, but no more than 12) were randomly assigned to 32 pots, with 8 pots randomly assigned to each treatment (100 μg, 10 μg, 1 μg, 0 μg Chlorantraniliprole). Mortality and reproduction were then monitored at 4, 6, 18 and 34 days.

small hive beetle (SHB) = test: Field Assay: SHB infestation of pollen supplement patties in hives; format: in vivo, Aethina tumida; settings: approximately 10 μg chlorantraniliprole per 1 g protein feed
Experimental: FIG. 2 is a bar graph of the experimental results from FIG. 1, showing the infestation rates of protein substitute mixed with concentrated solution of chlorantraniliprole, methanol, and glycerol according to trial instructions compared to untreated/control supplementary feed. Instructions achieved approximately 10 μg chlorantraniliprole per 1 g protein feed. Briefly, chlorantraniliprole was dissolved in methanol at a ratio of 1 mg chlorantraniliprole to 1 ml methanol via agitation/stirring. Chlorantraniliprole-methanol solution was cooled to −20° C. and then suspended/mixed into glycerol also cooled to −20° C. and stored between 4° C. and −20° C. to create a shelf-stable product. Product was then mixed into lethal attractant/supplementary feed at a rate of 50 ml formulated product per 1 kg feed or attractant via either mechanical or hand mixing at ambient temperature (200 ml of 80% glycerol/20% methanol was added to 4 kg of protein feed (i.e., 40 ml glycerol and 10 ml methanol per 1 kg protein feed). Treated attractant/feed mixture was then ready for deployment in the honey colony.
Pollen supplement was weighed out into two masses, each approximately 4 kg. To create the control pollen supplement patties, 200 ml of 80% glycerol, 20% methanol by volume solution was added to the pollen supplement mass. […]

honey bees [1] = test: Adult Honeybee Atoxicity Assays (mortality cages)
Experimental: In all instances, isocaloric sugar feed solutions were used (all honey bees were exposed to feed of equivalent sugar concentration). Both sets of experiments also tested the safety of methanol as a solvent for carrying the chlorantraniliprole. Mortality cages used approximately 20-50 bees per cage replicated across numerous colonies. Each cage was treated with one experimental dose of feed. Each colony donates a cage of bees to each dose in a full factorial experiment in line with tests used for EPA evaluation. Mortality was recorded at 24 hours and 48 hours.
Treatments included chlorantraniliprole concentrations of: 0 (w/methanol), 0 (w/o methanol), 0 (positive dimethoate control), 5, 15, 65, 250 μg/mL.

adult carabid beetles = settings: Larson et al., Pest Manag. Sci. 2012; cited from earlier work
honey bees [2] = settings: cited from earlier work; for intoxication symptoms to honey bees: under certain test conditions, Minnesota Department of Agriculture website
bumblebee colony = settings: in vivo; cited from earlier work
[3] = 10 μg/g chlorantraniliprole in feed
[4] = 100 μg/g chlorantraniliprole in feed

SMILES | mortality of adult small hive beetles via contact exposure (small hive beetle adults; 5 μg and 10 μg a.i. on soaked shop towel in sugar water/methanol) | survival of adult small hive beetles (small hive beetle adults; 5 μg and 10 μg a.i., contact exposure, end of test period) | SHB larvae observed (reproduction) (adult small hive beetles; 1 μg/g chlorantraniliprole in feed) | SHB larvae observed (reproduction) (adult small hive beetles; [3]) | mortality of adult small hive beetles (adult small hive beetles; [3]) | SHB larvae observed (reproduction) (adult small hive beetles; [4]) | time of exposure by which all adult small hive beetles were dead (adult small hive beetles; [4]) [days] | SHB infestation of patties in the five day field trial period (small hive beetle (SHB); 5 days in hives) | SHB infestation of supplementary food after two weeks of incubation to hatch eggs (small hive beetle (SHB); 5 days in hives then 14 days at 30 C) | sublethal effect observed in honeybees (honey bees [1]; 250 μg/mL, the very highest dose) | adult bee mortality at effective control concentrations (honey bees [1]; USDA-standard laboratory trials, FIG. 4) | honey bee mortality in relation to dose (honey bees [1]; set one 1.25-10 μg/mL, set two 5-250 μg/mL in sugar feed, 24 hours and 48 hours) | in-field toxicity to adult carabid beetles (adult carabid beetles) | LD50 to Apis mellifera (EPA 2008) (honey bees [2]; EPA registration documentation as a lawn-treatment) [mg/bee] | oral toxicity (LD50) for bees, EPA Data (honey bees [2]; oral) | intoxication symptoms to honey bees (honey bees [2]) | fold less toxic than clothianidin to Apis mellifera (honey bees [2]; versus a comparable neonicotinoid, clothianidin) | effects on bumblebee colony growth or mortality (bumblebee colony) | toxicity of the solvent to honey bees (honey bees [1]; methanol in sugar feed (30% by volume in set one) versus no methanol)
CNC(=O)c1cc(Cl)cc(C)c1NC(=O)c1cc(Br)nn1-c1ncccc1Cl [chlorantraniliprole] | no evidence of elevated mortality | all adult small hive beetles survived the experiment | few larvae were observed but subsequently died while still in their first or second instars | No evidence of any larvael SHB | Elevated mortality | No evidence of any larvael SHB | ≤ 6 | remained free of SHB infestation | remained SHB-infestation free and 10/10 | Sublethal lethargy | no adult bee mortality | no significant increase in honey bee mortality | no evidence of apparent in-field toxicity | > 0.1 | exceeds 100 μg a.i. per bee | little or no intoxication symptoms | more than 2000 × | no detectable negative effects | –
Cc1cc(C(F)(C(F)(F)F)C(F)(F)F)ccc1NC(=O)c1cccc(I)c1C(=O)NC(C)(C)CS(C)(=O)=O [flubendiamide] | – | – | – | – | – | – | – | – | – | – | – | – | – | – | – | little or no intoxication symptoms | – | – | –
CO [methanol] | – | – | – | – | – | – | – | – | – | – | – | – | – | – | – | – | – | – | No evidence of any toxicity
